Consider one compound from patent US20110014644A1, “METHODS FOR PREDICTING A CANCER PATIENT'S RESPONSE TO ANTIFOLATE CHEMOTHERAPY” (Precision Therapeutics, Inc., priority 2009, published 2011).

In assay [1] the test system is primary cultures of NSCLC specimens. Nature of the assay: ChemoFx live cell chemoresponse assay on primary cultures of patient lung cancer specimens. The assay is classed as cell-based, human. Conditions: 65 primary cultures, single agent, 72 hours. The method, then:
The ChemoFx™ live cell chemoresponse assay was performed on 65 patient specimens and the cell line A549. The cells were treated with a 10-dose range of pemetrexed for 72 hours before DAPI-nuclear staining and counting. AUC (Area Under Curve) values were calculated and additional statistical analysis was performed on the resulting dose-response curves.
The area under the dose-response curve (AUC) represents the survival fraction of cells in the presence of drug at each of the 10 increasing dose concentrations. There can be certain circumstances when dose-response curves of differing shapes share similar AUCs. Therefore, as a better reflection of sensitivity to drug treatment, an adjusted area under the curve (aAUC) was calculated according to the following formulas. First, local slope (Sd) at each dose point was calculated based on Sd=(CId-1−CId)/unit of dose. Second, slope weight (Wd) at each dose point was calculated based on Wd=1−Sd. Finally, aAUC was computed based on aAUC=Σ Wd CId, where d=1 . . . 10. Mi Z, et al. (2008) Anticancer Res 28: 1733-1740.
Adjusted areas under the curve (aAUC) were calculated for each dose-response curve. The assay results were classified as responsive (R; assay score≦5.34648.0), intermediate responsive (IR; assay score 5.3465-6.5372) or non-responsive (NR; assay score≧6.5373).

The subject of a further assay is A549 cells. Nature of the assay: ChemoFx live cell chemoresponse assay on A549 (wash-before-treatment, folic acid supplementation). The assay is classed as cell-based, human. The method, then: The ChemoFx™ live cell chemoresponse assay was performed on 65 patient specimens and the cell line A549. The cells were treated with a 10-dose range of pemetrexed for 72 hours before DAPI-nuclear staining and counting. AUC (Area Under Curve) values were calculated and additional statistical analysis was performed on the resulting dose-response curves. Folic Acid supplementation experiments were conducted. Pure folic acid was purchased from Sigma Aldrich, filtered, and prepared in a 100× concentration using RPMI media. The concentrate was added to RPMI media so that the final concentration of folic acid ranged between 1.5 mg/L and 500 mg/L. The cell line A549 was plated and treated according to the ChemoFx™ assay in the RPMI media containing increasing concentrations of folic acid. A control was also plated and treated at the same time. In order to determine whether or not removal of excess folic acid from growth media affected the outcome of the chemoresponse assay, a Wash Before Treatment (WBT) step was included. Briefly, A549 cells were plated in 5% BEGM growth media and were cultured to the desired confluence. The growth media was then aspirated and the cells washed with 70 μL of PBS. After removal of the PBS, 70 μL of 5% RPMI+EGF (EGF concentration of 10 ng/mL) treatment media was added to the each treatment well. Following the addition of the treatment media, 30 μL of the treatment media was removed leaving a total volume of 40 μL of treatment media per well. Pemetrexed was then prepared using serial dilutions in the treatment media and was applied to the treatment wells. All aspirations and additions of media and wash solutions was performed by an automated liquid handler to avoid harsh pipetting that might dissociate/disrupt cells.

The subject of assay [2] is non-small cell lung carcinoma (NSCLC). Conditions: second-line treatment in the clinical setting, NSCLC patients (Hanna 2004); cited from earlier work.

For the compound `Nc1nc2[nH]cc(CCc3ccc(C(=O)N[C@@H](CCC(=O)O)C(=O)O)cc3)c2c(=O)[nH]1` [pemetrexed, Pemetrexed], the “share of primary cultures with intermediate response (IR)” value in assay [1] (2.24 nM to 586 μM, aAUC assay score 5.3465-6.5372) stood at 9.2%. For the same compound, the “share of primary cultures non-responsive (NR)” value in assay [1] (2.24 nM to 586 μM, aAUC assay score ≧6.5373) worked out at 84.6%. The “share of primary cultures that responded (responsive, R)” value in assay [1] (ten serial dilutions 2.24 nM to 586 μM, aAUC assay score ≦5.34648.0) was 6.2%. Besides, in the assay with A549 cells (A549, RPMI media with folic acid 1.5 mg/L to 500 mg/L, FIG. 3), the “effect of folic acid on observed activity” value is “could be reversed with folic acid treatment”. Moreover, the “effect of wash-before-treatment (WBT) protocol on in vitro response” value in the assay on A549 cells (A549, with WBT, 5% BEGM to 5% RPMI+EGF, FIG. 1) is given as “significantly improved the in vitro response”. In the assay with A549 cells (A549, without WBT (5% BEGM control)), the “response curve without WBT” value is on record as “a typical ChemoFx™ response curve was not obtained”. Also, the “sensitivity of A549 to treatment” value with A549 cells (A549 cultured in 5% BEGM, treated in 5% RPMI+EGF, FIG. 1) is listed as “good positive control for sensitivity”. Besides, the “objective response rate (overall population response)” value in assay [2] was 9.1%.
